For 27 molecules, Ki and inhibition results are on record in ChEMBL document CHEMBL4622954, “Structural manipulation of aporphines via C10 nitrogenation leads to the identification of new 5-HT7AR ligands” (Bioorg Med Chem, 2020).

Assay [1] deals with 5-hydroxytryptamine receptor 2A (Homo sapiens, UniProt P28223).
Description: Displacement of [3H]-Ketanserin from 5-HT2A receptor (unknown origin) incubated for 90 mins by microbeta counting method
Assay [2] deals with T1, 5-hydroxytryptamine receptor 6 (Homo sapiens, UniProt P50406).
The target of assay [3] is T2, 5-hydroxytryptamine receptor 1A (Homo sapiens, UniProt P08908).
T2 sequence (P08908 whole entry): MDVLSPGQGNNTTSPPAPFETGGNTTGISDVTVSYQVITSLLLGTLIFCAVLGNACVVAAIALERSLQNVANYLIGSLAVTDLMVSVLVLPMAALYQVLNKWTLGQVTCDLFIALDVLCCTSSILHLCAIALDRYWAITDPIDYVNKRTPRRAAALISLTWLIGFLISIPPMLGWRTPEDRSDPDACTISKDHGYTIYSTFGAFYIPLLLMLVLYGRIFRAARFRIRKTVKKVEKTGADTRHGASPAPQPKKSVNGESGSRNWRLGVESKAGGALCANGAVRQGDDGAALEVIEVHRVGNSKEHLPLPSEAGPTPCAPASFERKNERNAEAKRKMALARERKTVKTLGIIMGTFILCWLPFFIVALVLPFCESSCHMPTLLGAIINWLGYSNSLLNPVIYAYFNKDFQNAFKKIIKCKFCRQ
The assay is described as follows: biochemical.
Description: (§1) Displacement of [3H]-WAY100635 from human 5-HT1A receptor expresssed in stable CHO cell membrane incubated for 90 mins by microbeta counting method

Assay [4] has as its target T3, 5-hydroxytryptamine receptor 7 (Homo sapiens, UniProt P34969). Briefly: biochemical.
Description: (§2) Displacement of [3H]-LSD from human 5-HT7A receptor expresssed in stable HEK cell membrane incubated for 90 mins by microbeta counting method
Assay [5] addresses T1, 5-hydroxytryptamine receptor 6. Briefly: Displacement of [3H]-LSD from human 5-HT6 receptor expresssed in stable HEK cell membrane incubated for 90 mins by microbeta counting method.
Assay [6] shares this target. The assay is described as follows: biochemical.
Another assay concerns the target T4, D(4) dopamine receptor (Homo sapiens, UniProt P21917).
T4 sequence (P21917 whole entry): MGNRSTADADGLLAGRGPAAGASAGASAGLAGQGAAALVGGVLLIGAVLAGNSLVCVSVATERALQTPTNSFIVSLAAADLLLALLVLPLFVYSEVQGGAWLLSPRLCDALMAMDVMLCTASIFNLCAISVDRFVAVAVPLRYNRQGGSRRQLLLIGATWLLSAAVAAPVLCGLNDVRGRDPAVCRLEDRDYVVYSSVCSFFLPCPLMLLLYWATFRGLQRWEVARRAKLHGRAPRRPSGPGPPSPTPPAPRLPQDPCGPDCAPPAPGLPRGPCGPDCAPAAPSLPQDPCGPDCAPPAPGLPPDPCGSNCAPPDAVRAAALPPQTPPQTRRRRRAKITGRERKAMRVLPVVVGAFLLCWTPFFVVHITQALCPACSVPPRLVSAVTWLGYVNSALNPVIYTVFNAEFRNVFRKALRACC
Briefly: Displacement of [3H]-N-Methylspiperone from human dopamine D4 receptor expressed in stable HEK cells incubated for 90 mins by microbeta counting method. The assay is classed as cell-based.

The next assay has as its target D(1B) dopamine receptor (Homo sapiens, UniProt P21918). The assay is described as follows: Binding affinity to human dopamine D5 receptor expressed in HEKT cells incubated for 90 mins by microbeta counting method. The assay is classed as cell-based.
A further assay addresses D(1A) dopamine receptor (Homo sapiens, UniProt P21728).
The next assay has as its target D(2) dopamine receptor (Homo sapiens, UniProt P14416). To be noted: fibroblast.
The target of assay [7] is T2, 5-hydroxytryptamine receptor 1A. To be noted: cho.
Description: as §1
Assay [8] deals with T5, 5-hydroxytryptamine receptor 1A (Homo sapiens) (UniProt P08908).
T5 sequence (whole entry): T2 sequence (P08908 whole entry)
To be noted: CHO.
Description: as §1

The target in the next assay is D(3) dopamine receptor (Homo sapiens, UniProt P35462).
Chain of D(3) dopamine receptor (P35462 whole entry): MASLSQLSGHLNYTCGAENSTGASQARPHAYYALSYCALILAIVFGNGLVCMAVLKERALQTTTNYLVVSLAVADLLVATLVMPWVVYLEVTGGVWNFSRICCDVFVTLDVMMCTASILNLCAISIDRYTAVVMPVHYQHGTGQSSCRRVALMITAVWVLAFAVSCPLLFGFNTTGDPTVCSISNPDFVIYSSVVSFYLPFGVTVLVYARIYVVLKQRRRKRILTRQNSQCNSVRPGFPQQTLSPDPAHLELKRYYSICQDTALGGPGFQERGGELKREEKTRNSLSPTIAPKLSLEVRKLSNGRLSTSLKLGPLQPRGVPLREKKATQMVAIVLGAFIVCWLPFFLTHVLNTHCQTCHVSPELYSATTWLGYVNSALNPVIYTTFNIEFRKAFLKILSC
In assay [9] the target is T3, 5-hydroxytryptamine receptor 7.
Description: as §2
Assay [10] shares this target. This is another data set of the same source.
Description: as §2

T3 sequence (P34969 whole entry): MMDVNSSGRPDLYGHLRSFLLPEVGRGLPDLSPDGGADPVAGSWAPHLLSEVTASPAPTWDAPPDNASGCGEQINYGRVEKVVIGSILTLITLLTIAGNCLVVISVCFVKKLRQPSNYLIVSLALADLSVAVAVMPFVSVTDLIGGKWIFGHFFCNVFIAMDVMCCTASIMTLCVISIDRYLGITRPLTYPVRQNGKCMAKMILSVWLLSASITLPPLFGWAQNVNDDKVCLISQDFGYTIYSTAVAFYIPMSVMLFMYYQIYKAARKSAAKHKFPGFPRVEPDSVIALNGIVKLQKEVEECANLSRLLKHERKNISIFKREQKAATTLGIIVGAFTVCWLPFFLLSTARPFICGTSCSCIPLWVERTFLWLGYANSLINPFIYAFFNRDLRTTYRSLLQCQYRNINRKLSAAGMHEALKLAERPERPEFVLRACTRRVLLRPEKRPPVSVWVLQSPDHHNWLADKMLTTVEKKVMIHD
Chain of 5-hydroxytryptamine receptor 2A (P28223 whole entry): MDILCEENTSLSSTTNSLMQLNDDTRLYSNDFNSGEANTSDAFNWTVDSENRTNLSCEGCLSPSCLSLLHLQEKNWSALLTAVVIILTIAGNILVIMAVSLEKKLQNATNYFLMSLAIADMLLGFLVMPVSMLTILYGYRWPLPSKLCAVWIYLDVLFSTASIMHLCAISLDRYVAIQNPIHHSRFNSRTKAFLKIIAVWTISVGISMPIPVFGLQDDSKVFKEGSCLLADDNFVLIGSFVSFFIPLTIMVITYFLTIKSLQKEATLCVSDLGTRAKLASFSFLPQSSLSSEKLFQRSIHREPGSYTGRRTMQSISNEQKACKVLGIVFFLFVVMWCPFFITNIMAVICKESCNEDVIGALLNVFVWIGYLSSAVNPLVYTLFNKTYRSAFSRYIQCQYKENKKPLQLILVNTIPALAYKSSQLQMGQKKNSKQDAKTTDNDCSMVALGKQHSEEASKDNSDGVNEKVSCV
T1 sequence (P50406 whole entry): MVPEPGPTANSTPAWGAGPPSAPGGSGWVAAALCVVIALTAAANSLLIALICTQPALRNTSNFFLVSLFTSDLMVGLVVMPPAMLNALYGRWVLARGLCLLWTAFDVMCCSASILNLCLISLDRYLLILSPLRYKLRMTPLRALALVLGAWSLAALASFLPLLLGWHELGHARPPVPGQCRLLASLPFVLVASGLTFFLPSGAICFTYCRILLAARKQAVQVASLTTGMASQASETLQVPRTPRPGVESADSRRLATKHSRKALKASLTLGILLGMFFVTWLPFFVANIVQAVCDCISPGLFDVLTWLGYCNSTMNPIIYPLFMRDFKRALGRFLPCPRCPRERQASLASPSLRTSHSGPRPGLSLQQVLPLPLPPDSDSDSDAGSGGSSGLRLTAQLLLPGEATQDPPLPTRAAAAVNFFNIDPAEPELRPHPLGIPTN
Chain of D(1A) dopamine receptor (P21728 whole entry): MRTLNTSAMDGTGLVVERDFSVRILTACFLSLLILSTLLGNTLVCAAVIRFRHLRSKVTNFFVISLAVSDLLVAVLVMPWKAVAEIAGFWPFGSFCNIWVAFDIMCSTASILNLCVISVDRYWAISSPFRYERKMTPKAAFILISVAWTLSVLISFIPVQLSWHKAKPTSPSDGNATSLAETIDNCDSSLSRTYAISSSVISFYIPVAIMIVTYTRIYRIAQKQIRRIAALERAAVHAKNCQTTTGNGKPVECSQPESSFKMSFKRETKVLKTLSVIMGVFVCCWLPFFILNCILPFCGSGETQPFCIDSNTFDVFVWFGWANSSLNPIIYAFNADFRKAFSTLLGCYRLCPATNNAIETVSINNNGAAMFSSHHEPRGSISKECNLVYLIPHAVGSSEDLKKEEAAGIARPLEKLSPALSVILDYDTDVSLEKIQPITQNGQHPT
Chain of D(1B) dopamine receptor (P21918 whole entry): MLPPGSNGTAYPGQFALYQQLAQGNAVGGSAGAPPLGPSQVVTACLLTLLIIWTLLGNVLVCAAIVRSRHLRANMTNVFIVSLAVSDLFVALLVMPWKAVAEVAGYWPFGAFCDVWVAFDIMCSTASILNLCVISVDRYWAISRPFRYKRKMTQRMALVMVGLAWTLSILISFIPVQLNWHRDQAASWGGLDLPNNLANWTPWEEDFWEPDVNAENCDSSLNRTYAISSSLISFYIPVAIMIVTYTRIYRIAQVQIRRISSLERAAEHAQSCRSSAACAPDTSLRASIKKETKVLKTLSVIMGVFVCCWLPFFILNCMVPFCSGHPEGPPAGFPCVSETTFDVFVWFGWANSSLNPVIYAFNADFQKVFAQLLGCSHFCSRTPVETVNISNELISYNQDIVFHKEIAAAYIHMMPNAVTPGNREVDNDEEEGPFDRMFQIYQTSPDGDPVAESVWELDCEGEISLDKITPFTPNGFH
Chain of D(2) dopamine receptor (P14416 whole entry): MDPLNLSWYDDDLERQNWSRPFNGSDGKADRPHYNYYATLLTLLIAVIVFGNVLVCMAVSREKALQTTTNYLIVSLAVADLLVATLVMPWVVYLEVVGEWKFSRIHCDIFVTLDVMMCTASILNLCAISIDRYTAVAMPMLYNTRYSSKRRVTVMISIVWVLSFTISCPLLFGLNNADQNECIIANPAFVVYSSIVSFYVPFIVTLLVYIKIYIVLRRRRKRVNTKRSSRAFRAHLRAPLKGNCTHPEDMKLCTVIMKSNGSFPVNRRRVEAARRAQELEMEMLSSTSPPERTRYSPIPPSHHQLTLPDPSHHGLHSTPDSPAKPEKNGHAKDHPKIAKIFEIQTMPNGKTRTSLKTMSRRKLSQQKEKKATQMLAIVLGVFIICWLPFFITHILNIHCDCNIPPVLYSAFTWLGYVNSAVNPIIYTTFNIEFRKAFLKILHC
Description for D(1A) dopamine receptor: Displacement of [3H]-SCH23390 from human dopamine D1 receptor expressed in HEKT cells incubated for 90 mins by microbeta counting method
Description for D(2) dopamine receptor: Displacement of [3H]-N-Methylspiperone from human dopamine D2 receptor expressed in stable fibroblast cells incubated for 90 mins by microbeta counting method
Description for D(3) dopamine receptor: Displacement of [3H]-N-Methylspiperone from dopamine D3 receptor (unknown origin) incubated for 90 mins by microbeta counting method

As for `CCCN1CCc2cccc3c2C1Cc1ccc(N)cc1-3` (stereo not drawn), the Ki entry in [1] is “Not Active”; in assay [2], “Not Active”; in assay [3] it was 30 nM; in assay [4], 63 nM. The molecule also displayed an inhibition in [5] below 50%.
On to `C#CCOc1c(OC)cc2c3c1-c1cc(NS(C)(=O)=O)ccc1CC3N(C)CC2` (racemic), for which the Ki worked out at 1330 nM in assay [1] (read-out: Ki), 511 nM in [3], 218 nM in assay [6] and 31 nM in [4].
With `COc1cc2c3c(c1OCC1CC1)-c1cc(NC(C)=O)ccc1CC3N(C)CC2` (racemic), the Ki in assay [1] (read-out: Ki) was found to be 974 nM; in assay [3], 1540 nM; in assay [6], 1500 nM; in [4], 636 nM.
Regarding `CN1CCc2cccc3c2C1Cc1cc2sc(N)nc2cc1-3` (racemic), the inhibition constant (Ki) entry (in assay [1]; on D(4) dopamine receptor; on D(1B) dopamine receptor; in [2]; on D(1A) dopamine receptor; on D(2) dopamine receptor) was “Not Active” throughout. In assay [3], the affinity, expressed as Ki, was 23 nM.
Regarding `CCCN1CCc2cccc3c2C1Cc1ccc(N(C)C)cc1-3` (racemic), the Ki entry was “Not Active” in assay [1], “Not Active” in assay [2], 256 nM in assay [3] and 984 nM in assay [4]. Also, the inhibition in assay [5] is below 50%.
As for `COc1cc2c3c(c1OCC1CC1)-c1cc(NC(N)=O)ccc1CC3N(C)CC2` (racemic), the inhibitory constant (Ki) in assay [1] (read-out: Ki) is 857 nM; in assay [3], 1280 nM; in assay [6], 527 nM; in [4], 353 nM.
In the case of `COc1cc2c3c(c1OC)-c1cc(NC(N)=O)ccc1CC3N(C)CC2` (racemic), the inhibition constant Ki entry in assay [1] is “Not Active”; in assay [7] it was “Not Active”; in assay [6], 415 nM; in assay [4], 289 nM. Also, the inhibition in assay [8] was below 50%.
Turning to `CCCC(=O)Nc1ccc2c(c1)-c1cccc3c1C(C2)N(CCC)CC3` (racemic), the Ki result was “Not Active” in assay [1], “Not Active” in assay [2], 15 nM in assay [3] and 311 nM in assay [4]. Besides, in [5], the inhibition is below 50%.
On to `CN1CCc2cccc3c2C1Cc1ccc(NC(N)=O)cc1-3` (racemic), for which the inhibition constant (Ki) entry in [1] is “Not Active”; on D(4) dopamine receptor, “Not Active”; on D(1B) dopamine receptor, “Not Active”; at D(3) dopamine receptor, 2460 nM; in assay [2], “Not Active”; on D(1A) dopamine receptor it was “Not Active”. Also, the Ki entry at D(2) dopamine receptor is “Not Active”; in assay [3], 49 nM.
For the molecule `C#CCOc1c(OC)cc2c3c1-c1cc(NC(=O)CCC)ccc1CC3N(C)CC2` (racemic), the Ki was determined as 1040 nM in assay [1] (read-out: Ki), 661 nM in assay [3], 354 nM in [6] and 455 nM in [4].
In the case of `CN(C)c1ccc2c(c1)-c1cccc3c1C(C2)N(C)CC3` (racemic), the Ki amounted to 566 nM in assay [1] (read-out: Ki), 458 nM in assay [3], 1590 nM in assay [6] and 17 nM in assay [4].
Regarding `CCCN1CCc2cccc3c2C1Cc1ccc(NC(C)=O)cc1-3` (racemic), the Ki result was “Not Active” in [1], “Not Active” in assay [2], “Not Active” in assay [9] and 21 nM in assay [3]. The inhibition in assay [5] and in [10] was below 50% in each case.
`COc1cc2c3c(c1OCC1CC1)-c1cc(N)ccc1CC3N(C)CC2` (racemic): the Ki in [1] (read-out: Ki) was 110 nM; in assay [7] it was “Not Active”; in [6], 132 nM; in assay [4] it was 104 nM. For the same molecule, the inhibition in assay [8] was below 50%.
With `CCCN1CCc2cccc3c2C1Cc1ccc(NC(N)=O)cc1-3` (racemic), the inhibition constant Ki result in [1] is “Not Active”; in [2], “Not Active”; in [9], “Not Active”; in [3], 236 nM. The inhibition in assay [5] and in [10] was below 50% throughout.
Take `C=CCOc1c(OC)cc2c3c1-c1cc(NC(=O)CCC)ccc1CC3N(C)CC2` (racemic): the Ki in [1] (read-out: Ki) came out at 443 nM; in [3], 463 nM; in assay [6], 198 nM; in assay [4], 188 nM.
Turning to `COc1cc2c3c(c1OCC1CC1)-c1cc(NS(C)(=O)=O)ccc1CC3N(C)CC2` (racemic), the Ki came to 433 nM in assay [1] (read-out: Ki), 385 nM in [3], 505 nM in [6] and 114 nM in [4].
With `C#CCOc1c(OC)cc2c3c1-c1cc(NC(N)=O)ccc1CC3N(C)CC2` (racemic), the Ki entry is “Not Active” in [1], 911 nM in assay [3], 410 nM in [6] and 123 nM in [4].
Take `COc1cc2c3c(c1OC)-c1cc(NS(C)(=O)=O)ccc1CC3N(C)CC2` (racemic): the inhibition constant Ki result in assay [1] was “Not Active”; in [7] it was “Not Active”; in assay [6] it was 86 nM; in assay [4] it was 89 nM. Further, the inhibition in [8] is below 50%.
With `CCCC(=O)Nc1ccc2c(c1)-c1c(OCC3CC3)c(OC)cc3c1C(C2)N(C)CC3` (racemic), the inhibitory constant (Ki) was 665 nM in assay [1] (read-out: Ki), 429 nM in assay [3], 322 nM in assay [6] and 395 nM in [4].
Regarding `CCCN1CCc2cccc3c2C1Cc1ccc(NS(C)(=O)=O)cc1-3` (racemic), the Ki entry in assay [1] is “Not Active”; in [2], “Not Active”; in [3], 23 nM; in [4], 199 nM. Moreover, the inhibition in assay [5] is below 50%.
On to `C=CCOc1c(OC)cc2c3c1-c1cc(NS(C)(=O)=O)ccc1CC3N(C)CC2` (racemic), for which the inhibitory constant (Ki) in [1] (read-out: Ki) amounted to 668 nM; in assay [3], 403 nM; in assay [6] it was 590 nM; in assay [4] it was 42 nM.
In the case of `COc1cc2c3c(c1OC)-c1cc(N(C)C)ccc1CC3N(C)CC2` (racemic), the Ki stood at 295 nM in [1] (read-out: Ki), 1570 nM in assay [3], 127 nM in [6] and 73 nM in assay [4].
With `C=CCOc1c(OC)cc2c3c1-c1cc(N(C)C)ccc1CC3N(C)CC2` (racemic), the inhibitory constant (Ki) in assay [1] (read-out: Ki) was 318 nM; in assay [7], “Not Active”; in assay [6], 102 nM; in assay [4], 309 nM. The molecule further displayed an inhibition in assay [8] below 50%.
As to `COc1cc2c3c(c1OCC1CC1)-c1cc(N(C)C)ccc1CC3N(C)CC2` (racemic), the Ki in [1] (read-out: Ki) came to 878 nM; in [3], 1440 nM; in assay [6], 329 nM; in [4], 752 nM.
For `CN1CCc2cccc3c2C1Cc1ccc(NS(C)(=O)=O)cc1-3` (racemic), the Ki result in assay [1] was “Not Active”; in assay [2], “Not Active”; in assay [3], 133 nM; in assay [4] it was 27 nM. The inhibition in assay [5] was below 50%.
Consider `CCCN1CCc2cccc3c2C1Cc1ccc2nc(N)sc2c1-3` (racemic), for which the Ki result in [1] was “Not Active”; in assay [2] it was “Not Active”; in assay [3] it was 93 nM. Further, in assay [5], the inhibition was below 50%.
Take `CCCC(=O)Nc1ccc2c(c1)-c1c(OC)c(OC)cc3c1C(C2)N(C)CC3` (racemic): the inhibition constant Ki is 417 nM in assay [1] (read-out: Ki), 469 nM in [3], 356 nM in assay [6] and 67 nM in [4].
